The subject of experiment [1] is CA1 area of rat hippocampal slices. Put plainly: Long-term potentiation in CA1 area of hippocampal slices. Type of experiment: cell-based.
The test system of experiment [2] is CREB. The experiment in a line: CREB phosphorylation in hippocampal slices (immunoblotting, densitometry). Format: cell-based, rat. The note with it: inhibitor alone (50 μM PD98059 or 10 μM U0126, 30 minutes). The protocol: (§1) Western blots panels A and B) of hippocampal slices treated with (A) 1 μM fisetin or (B) pretreated for 30 minutes with either 50 μM PD98059 (PD) or 10 μM U0126 (U) before the addition of 1 μM fisetin for 5 minutes, which blots were probed with the indicated antibodies.
(§2) Hippocampal slices in artificial cerebral spinal fluid (ACSF) were treated with either 1 μM fisetin for 5-20 minutes or pretreated for 30 minutes with either 50 μM PD98059 (PD) or 10 μM U0126 (J) before the addition of 1 μM fisetin for 5 minutes. Equal amounts of protein were analyzed by SDS-PAGE and immunoblotting with antibodies to phospho-ERK and phospho-CRFB along with antibodies to the unphosphorylated forms of the proteins. The average phosphoprotein signal from the blots was quantified by densitometry and normalized to total protein was plotted±S.D.

In experiment [3] the test system is ERK. Put plainly: ERK activation in PC12 cells (immunoblotting, anti-phospho ERK). Type of experiment: cell-based. The note with it: 50 μM PD98059, 30 minutes pretreatment, flavonoids 4 hours. The protocol: PC12 cells were treated with the optimal concentrations for differentiation of the different derivatives for 10 minutes to 6 hours; then the cells were scraped into sample buffer and analyzed by SDS-PAGE and immunoblotting with an antibody specific for phosphorylated ERKs (anti-phospho ERK) and an antibody that detects phosphorylated and unphosphorylated ERKs (anti-ERK),
ERK activation by the different flavonoids was blocked by pretreatment with PD98059, an inhibitor of MEK, the kinase which phosphorylates ERK. PC12 cells in N2 medium were untreated (control) or treated with 10 μM fisetin, 25 μM 3,3′-DHF, 25 μM 3,4′-DHF, 25 μM 3′,4′-DHF, 5 μM 3,3′,4′-THF, 25 μM 3,7,3′-THF, 25 μM 3,7,4′-THF or 10 μM 7,3′,4′-THF for 4 hours in the absence or presence of 50 μM PD98059 (30 minutes pretreatment). The cells then were scraped into sample buffer and analyzed by SDS-PAGE and immunoblotting with an antibody specific for phosphorylated ERKs (anti-phospho ERK) and an antibody that detects phosphorylated and unphosphorylated ERKs (anti-ERK). […]
PC12 cells in N2 medium were treated with the flavonoids as described in the text and, after the indicated time periods, the cells were solubilized in SDS sample buffer containing 0.1 mM Na3VO4 and 1 mM phenylmethylsulfonyl fluoride (PMSF), boiled for 5 minutes and either analyzed immediately or stored frozen at −70° C. […]

The subject of experiment [4] is HT22 cells. Put plainly: Protection of HT22 cells from oxidative glutamate toxicity (MTT assay). Type of experiment: cell-based, mouse. The conditions noted are these: 5 mM glutamate ± 50 μM PD98059, 24 hours. The source says: Fisetin is effective at protecting nerve cells from oxidative stress-induced death (Ishige et al., Free Radic. Biol. Med., 30:433-446, 2001). This Example illustrates the structure-activity relationship between fisetin derivatives and neuroprotection in a model of oxidative glutamate toxicity using mouse HT22 cells. This pathway of programmed cell death is initiated by the addition of glutamate to the extracellular medium. Glutamate inhibits the uptake of cystine which is required for glutathione (GSH) biosynthesis, resulting in the depletion of GSH in neurons (for review see Tan et al., Curr. Top. Med. Chem., 1:497-506, 2001). Subsequently, this decrease in cellular GSH results in the production of reactive oxygen species (ROS) by mitochondria. The ROS accumulation then causes Ca^+2 influx from the extracellular medium which leads to cell death.
HT22 cells were untreated (Ct) or treated with 10 μM fisetin, 25 μM 3,3′-DHF, 25 μM 3,4′-DHF, 2.5 μM 3′,4′-DHF, 2.5 μM 3,3′,4′-THF 25 μM 3,7,3′-THF, 25 μM 3,7,4′-THF or 10 μM 7,3′,4′-THF in the presence of 5 mM glutamate±50 μM PD98059. Twenty four (24) hours later cell survival was measured by the MTT assay.
HT22 cells were untreated (Ct) or treated with 10 μM fisetin, 25 μM 3,3′-DHF. […] Protection by all of the other flavonoids was unaffected by BSO.
Cell viability was determined by a modified version of the 3-(4,5-dimethylthiazol-2-yl)-2,5-diphenyl tetrazolium bromide (MTT) assay based on the standard procedure (Hansen et al., J. Immunol. Meth., 119:203-10, 1989). Briefly, cells were seeded onto 96-well microtiter plates at a density of 5×10^3 cells per well. The next day, the medium was replaced with DMEM supplemented with 7.5% DFCS and the cells were treated with the different flavonoids alone or in the presence of 5 mM glutamate. Twenty four hours later, the medium in each well was aspirated and replaced with fresh medium containing 2.5 μg/ml MTT. After 4 hours of incubation at 37° C., cells were solubilized with 100 μl of a solution containing 50% dimethylformamide and 20% SDS (pH 4.7). The absorbance at 570 nm was measured on the following day with a microplate reader (Molecular Devices). Results obtained from the MTT assay correlated directly with the extent of cell death as confirmed visually. Controls employing wells without cells were used to determine the effects of the agents upon the assay chemistry.

Experiment [5] has as its system ERK1 (p44). Put plainly: ERK1 (p44) phosphorylation in hippocampal slices (immunoblotting, densitometry). Type of experiment: cell-based, rat. The conditions noted are these: inhibitor alone (50 μM PD98059 or 10 μM U0126, 30 minutes). The protocol:
as §1, §2

For experiment [6], the system named is ERK2 (p42). Put plainly: ERK2 (p42) phosphorylation in hippocampal slices (immunoblotting, densitometry). Format: cell-based, rat. The note with it: inhibitor alone (50 μM PD98059 or 10 μM U0126, 30 minutes). Here is the method:
as §1, §2

Experiment [7] has as its system ERK. Put plainly: ERK activation in primary cortical neuron cultures (immunoblotting). Format: cell-based, rat. The note with it: 50 μM PD98059 pretreatment, 10 μM fisetin 4 hours. Here is the method:
(§3) The average phosphoprotein signal from the blots was quantified by densitometry and normalized to total protein,
(§4) Five (5) day old cortical cultures were next pretreated with 50 μM of the MEK inhibitor, PD98059, before the addition of 10 μM fisetin for 4 hours.
(§5) Primary cultures of rat cortical neurons were prepared as previously described by Li et al. (Neuron, 19:453-63, 1997, herein incorporated by reference as to the method). Analysis of ERK and CREB phosphorylation was performed using SDS-polyacrylamide gel electrophoresis and immunoblotting as previously described by Sagara et al. (J. Neurochem., 90:1144-1155, 2004) using equal amounts of protein from 5 day old cortical cultures. Blots were scanned and quantified using NIH Image. Results were analyzed using an unpaired Student's t-test.

The subject of experiment [8] is CREB. The experiment in a line: CREB activation in primary cortical neuron cultures (immunoblotting). Type of experiment: cell-based, rat. The note with it: 50 μM PD98059 pretreatment, 10 μM fisetin 4 hours. Here is the method:
as §3, §4, §5

Experiment [9] concerns CREB. The note with it: Vanhoutte et al. 1999; cited from earlier work.
Experiment [10] relates to ERK. The conditions noted are these: Vanhoutte et al. 1999; English & Sweatt 1997; cited from earlier work.

With `COc1cccc(-c2cc(=O)c3ccccc3o2)c1N` [PD98059, reference compound], in experiment [1] (PD98059 added 10 minutes prior to fisetin), the “effect on fisetin-induced facilitation of LTP” value is “blocked”. The “effect on basal synaptic transmission” value in experiment [1] (no tetanus) was “no effect”. Also, the “CREB phosphoprotein signal normalized to total protein” value in experiment [2] came to 0.64±0.11. Also, the “effect on ERK activation by the different flavonoids” value in experiment [3] is given as “blocked”. The “effect on the ability of fisetin or its derivatives to prevent cell death” value in experiment [4] is “no significant effect”. Further, the “p44 phosphoprotein signal normalized to total protein” value in experiment [5] is on record as 0.75±0.5. Besides, in experiment [6], the “p42 phosphoprotein signal normalized to total protein” value is 0.83±0.08. For the same compound, the “effect on activation of ERK by fisetin” value in experiment [7] was “blocked”. Besides, the “effect on activation of CREB by fisetin” value in [8] is given as “blocked”.

For `N[C@@H](CCC(=O)O)C(=O)O` [glutamate], the “increase in CREB phosphorylation reported following treatment of slices” value in [9] is listed as around 2.5 fold. Besides, in [10], the “increase in ERK phosphorylation reported following treatment of slices” value was 1.5-2 fold.

The record behind these values is US7897637B2, “Methods of using flavonoids to enhance memory” (The Salk Institute for Biological Studies, priority 2006, dated 2011).
